“And” between values parts separate entries of the source, which are not always exact repeats. Equal values may be shown once. “Also recorded” adds a separate entry of the source.
Legend:
[1] = tested on: PBMC of HLA-A*02 positive AML patients; assay: IFN-γ ELISPOT, AML patients; settings: for samples with significant (>20) CTL responses against peptide: AML patient samples, IFN-γ ELISPOT; for # of positively stained spots (IFN-γ ELISPOT): AML patients, HLA-A*02 positive, one value per patient (table line), T cells cultured seven days with IL-2
Procedure: (§3) To determine the frequency of OFA/iLR peptide-specific T cells in patients, ELISPOT-assays were performed using the Interferon-γ-ELISPOT-Kit (Becton Dickinson, Heidelberg, Germany) according to manufacturer's instructions.
(§4) Prior to analysis, T cells from patients and healthy donors had been kept in culture for seven days in the presence of Interleukin-2 (IL microgram/10^6 PBMC/milliliter).

[2] = tested on: PBMC from healthy donors, CD34-positive progenitor cells, bone marrow cells; assay: 51Chromium release assay, peptide-specific CTL on normal cells; type: cell-based, human; settings: for recognition of bone marrow cells by peptide-specific T cells: A*02-positive donors (BM-01, -02); for recognition of CD34-positive bone-marrow-derived progenitor cells by peptide-specific T cells: A*02-positive donors (CD34-01, -02)
Source text: (§1) CTL derived from healthy HLA-A*0201^+ individuals were generated using a protocol described elsewhere (Zeis M, Siegel S, Schmitz M et al. Induction of cytotoxic T lymphocytes against hematologic neoplasms by survivin RNA-transfected dendritic cells. J Immunol. 2003; 170, 5391-5397.). For the induction of autologous OFA/ILR, peptide-specific CTL obtained from patients with AML and CLL, CD8^+ T cells were separated from PBMC using immunomagnetic beads (MACS®, Miltenyi, Bergisch-Gladbach, Germany), cultured with autologous OFA/iLR peptide-pulsed fully matured DC and restimulated with autologous peptide-pulsed PBMC in the presence of IL-2 (1 ng/ml, CellConcepts, Weisskirch, Germany). After at least four weekly restimulations, CTL reactivity was determined in a conventional 4 h ^51Chromium release assay. Cold target inhibition assays and antibody blocking experiments were performed as previously described (Zeis M, Siegel S, Schmitz M et al. Induction of cytotoxic T lymphocytes against hematologic neoplasms by survivin RNA-transfected dendritic cells. J Immunol. 2003; 170, 5391-5397.).
(§2) T cells recognizing the ILR1-peptide were tested on K562 [human pro-erythroblastic leukemia cell-line, also known as chronic myelogenous leukemia (CML) cell line, which, due to extremely low levels of HLA, functions as a control for excluding NK cells as effector cells], IND (human B lymphoblastoid cell line), Karpas-422 (human B cell lymphoma), Balm-3 (human non-Burkitt B-lymphoma cell line), U266 (human multiple myeloma), REH (Human B cell precursor leukemia), MEC-1 (human chronic B cell leukemia). The same T cells were used to test autologous and allogeneic PBMC from healthy donors as controls. […] The response is not directed against allogeneic major or minor histocompatibility complex antigens. • 3. ILR1 peptide is recognized in an HLA-restricted fashion. • 4. The restriction is allele-specific (specific for A*02). Target: AML

[3] = tested on: peptide-pulsed T2 cells; assay: Lysis of peptide-pulsed T2 target cells by peptide-specific CTL (peptide titration); type: cell-based, human; settings: for affinity of peptide-specific CTL to the peptide/MHC complex: peptide titration curves
[4] = tested on: hematological tumor cell lines (K562, IM9, Karpas-422, Balm-3, U266, REH, Ramos, MEC-1); assay: 51Chromium release assay, peptide-specific CTL on tumor cell lines; type: cell-based, human; settings: for cytolytic activity of peptide-specific CTL lines: HLA-A*0201+ hematological tumor lines, primary malignant AML blasts and CLL cells; for recognition of cell lines by peptide-specific T cells: K562, IND/IM9, Karpas-422, Balm-3, U266, REH, MEC-1, Ramos also for ILR2
Source text: as §1, §2
T cells recognizing the ILR2-peptide (FIG. 6) were tested on K562 [human proerythroblastic leukemia cell-line, also known as chronic myelogenous leukemia (CML) cell line, which, due to extremely low levels of HLA, functions as a control for excluding NK cells as effector cells], IM9 (human B lymphoblastoid cell line), Karpas-422 (human B cell lymphoma), Balm-3 (human non-Burkitt B-lymphoma cell line), U266 (human multiple myeloma), REH (Human B cell precursor leukemia), Ramos (synonym: RA 1; a human Burkittt's lymphoma B lymphoblast), MEC-1 (human chronic B cell leukemia). The same T cells were used to test autologous and allogeneic PBMC from healthy donors as controls.

[5] = target: T1, HLA-A*0201 (Homo sapiens, UniProt P04439, /I218V/L300P/L318F/N151K/N90K/P208A/P217A/Q86G/Q94H/R138H/R169H/T345S); assay: T2 whole cell-binding assay (in vitro reconstitution assay, TAP-deficient T2 cell line); settings: compared with the Flu nucleoprotein58-66
T1 construct: using the TAP (transporter associated with antigen processing)-deficient T2 cell line; host or cells: T2 (human, TAP-deficient)

[6] = tested on: PBMC of HLA-A*02 positive healthy donors; assay: IFN-γ ELISPOT, healthy donors; settings: healthy donors, HLA-A*02 positive; one value per donor (table line); T cells cultured seven days with IL-2
Procedure: as §3, §4

[7] = tested on: tumor cells from CLL patients; assay: 51Chromium release assay, peptide-specific CTL on tumor cells from CLL patients; type: cell-based, human; settings: for A*02-positive CLL patients in whom the peptide is a tumor-associated antigen: summary of two experiments; for recognition of CLL cells from A*02-negative patients by peptide-specific T cells / recognition of CLL cells from A*02-positive patients by peptide-specific T cells: two experiments
Source text: as §1
T cells specific for HLA-A*02-restricted ILR1 were tested on tumor cells from CLL patients (5 patients; samples CLL-01, -02, -03, -05, -06). […] The experiment was repeated (FIG. 3A) with 8 more CLL patients, of whom 4/8 were A*02-positive. […] In summary: • 1. ILR1 is a tumor-associated antigen in 100% (7/7) of A*02-positive CLL patients tested. • 2. ILR1 is restricted by HLA-A*02. Target: T2
T cells specific for HLA-A*02-restricted ILR2 were tested on tumor cells from CLL patients (8 patients; samples CLL-01, -02, -03, -04, -05, -06, -07, -08). […] The experiment was repeated (FIG. 9B) with 5 more CLL patients, of whom 3/5 were A*02-positive. […] Conclusion-and-summary: • 1. ILR2 is a tumor associated antigen in 100% (7/7) of A*02-positive CLL patients tested. • 2. ILR2 is restricted by HLA-A*02. Target: T2

[8] = tested on: PBMC of HLA-A*02 positive CLL patients; assay: IFN-γ ELISPOT, CLL patients; settings: for samples with significant (>20) CTL responses against peptide: CLL patient samples, IFN-γ ELISPOT; for # of positively stained spots (IFN-γ ELISPOT): CLL patients, HLA-A*02 positive, one value per patient (table line), T cells cultured seven days with IL-2
Procedure: as §3, §4

[9] = tested on: tumor cells from AML patients; assay: 51Chromium release assay, peptide-specific CTL on tumor cells from AML patients; type: cell-based, human; settings: for recognition of AML cells from A*02-negative patients by peptide-specific T cells / recognition of AML cells from A*02-positive patients by peptide-specific T cells: 1st and 2nd experiment; for A*02-positive AML patients in whom the peptide is a tumor-associated antigen: summary of two sets of experiments
Source text: as §1
T cells specific for HLA-A*02-restricted ILR1 were tested on tumor cells from AML patients (4 patients; samples AML-01, -02, -03, -06) (FIG. 4A). Cells from A*02-positive patients (3/4) were recognized with maximum lysis at an E:T ratio of 40:1 ranging between 25,9% and 39,8%.
T cells specific for HLA-A*02-restricted ILR1 were tested on tumor cells from AML patients for a second time to confirm the results obtained in the 1st experiment (9 patients; samples AML-01, -02, -04, -05, -06, -07, -09, -10, -12).
T cells specific for HLA-A*02-restricted ILR2 were tested on tumor cells from AML patients (8 patients; samples AML-01, -02, -04, -05, -06, -07, -10, -12). […] The experiment was conducted a 2nd time with samples from patients […]. In this 2nd experiment, T cells specific for HLA-A*02-restricted ILR2 were tested again on tumor cells from AML patients (4 patients; samples AML-01, -02, -03, -06).

ALCNTDSPL (listed as Homo sapiens) [ILR2]
samples with significant (>20) CTL responses against peptide [1]: 47% | # of positively stained spots (IFN-γ ELISPOT) [1]: 0 per 105 PBMC (4×) and 1 per 105 PBMC (2×) and 3 per 105 PBMC (2×) and 34 per 105 PBMC (3×) and 27 per 105 PBMC and 23 per 105 PBMC and 112 per 105 PBMC and 32 per 105 PBMC | lysis of HLA-A2-negative targets and normal hematopoietic cells by peptide-specific CTL lines [2]: spared | recognition of allogeneic and autologous PBMC from healthy donors by peptide-specific T cells [2]: not recognized | recognition of bone marrow cells by peptide-specific T cells [2]: not recognized | recognition of CD34-positive bone-marrow-derived progenitor cells by peptide-specific T cells [2]: not recognized | recognition/lysis of T2 cells pulsed with the peptide ([3]; effectors: T cells specific for ILR2): lysed in a dose-dependent fashion | affinity of peptide-specific CTL to the peptide/MHC complex [3]: high affinity | cytolytic activity of peptide-specific CTL lines [4]: strong cytolytic activity | recognition of cell lines by peptide-specific T cells [4]: All cell lines except Ramos and MEC-1, which do not express the HLA-A*02 allele, and K562, which is deficient for HLA class I gene expression in general, were recognized | binding affinity to HLA-A*0201 [5]: strong binding affinity | # of positively stained spots (IFN-γ ELISPOT) [6]: 0 per 105 PBMC (5×) and 3 per 105 PBMC (2×) and 2 per 105 PBMC and 4 per 105 PBMC (3×) and 5 per 105 PBMC (2×) and 6 per 105 PBMC and 7 per 105 PBMC | A*02-positive CLL patients in whom the peptide is a tumor-associated antigen [7]: 100% | recognition of CLL cells from A*02-negative patients by peptide-specific T cells [7]: not recognized in any case (0/4) and 0/2 A*02-negative target cells were recognized | recognition of CLL cells from A*02-positive patients by peptide-specific T cells [7]: recognized in all cases (4/4); also recorded: CLL cells from 3/3 A*02-positive patients were recognized | median numbers of positively stained CTL compared to responses to Influenza Matrix recall-antigen [8]: 55% | samples with significant (>20) CTL responses against peptide [8]: 56% | # of positively stained spots (IFN-γ ELISPOT) [8]: 4 per 105 PBMC and 45 per 105 PBMC and 65 per 105 PBMC and 128 per 105 PBMC and 67 per 105 PBMC and 23 per 105 PBMC and 27 per 105 PBMC and 78 per 105 PBMC and 56 per 105 PBMC and 0 per 105 PBMC (5×) and 2 per 105 PBMC and 57 per 105 PBMC | recognition of AML cells from A*02-negative patients by peptide-specific T cells [9]: not recognized (4/4); also recorded: not recognized (0/1) | recognition of AML cells from A*02-positive patients by peptide-specific T cells [9]: recognized in all cases (4/4) | A*02-positive AML patients in whom the peptide is a tumor-associated antigen [9]: 100%

LLAARAIVAI (listed as Homo sapiens) [ILR1]
samples with significant (>20) CTL responses against peptide [1]: 40% | # of positively stained spots (IFN-γ ELISPOT) [1]: 2 per 105 PBMC (3×) and 3 per 105 PBMC (2×) and 1 per 105 PBMC (2×) and 4 per 105 PBMC and 5 per 105 PBMC and 56 per 105 PBMC and 54 per 105 PBMC and 34 per 105 PBMC (2×) and 33 per 105 PBMC and 25 per 105 PBMC | lysis of HLA-A2-negative targets and normal hematopoietic cells by peptide-specific CTL lines [2]: spared | recognition of allogeneic and autologous PBMC from healthy donors by peptide-specific T cells [2]: not recognized | recognition of bone marrow cells by peptide-specific T cells [2]: not recognized | recognition of CD34-positive bone-marrow-derived progenitor cells by peptide-specific T cells [2]: not recognized | recognition/lysis of T2 cells pulsed with the peptide ([3]; effectors: T cells specific for ILR1): lysed in a dose-dependent fashion | affinity of peptide-specific CTL to the peptide/MHC complex [3]: high affinity | cytolytic activity of peptide-specific CTL lines [4]: strong cytolytic activity | recognition of cell lines by peptide-specific T cells [4]: All cell lines except MEC-1, which does not express the HLA-A*02 allele, and K562, which is deficient for HLA class I gene expression in general, were recognized | binding affinity to HLA-A*0201 [5]: strong binding affinity | # of positively stained spots (IFN-γ ELISPOT) [6]: 0 per 105 PBMC (5×) and 3 per 105 PBMC (2×) and 2 per 105 PBMC and 4 per 105 PBMC (3×) and 5 per 105 PBMC (2×) and 6 per 105 PBMC and 7 per 105 PBMC | A*02-positive CLL patients in whom the peptide is a tumor-associated antigen [7]: 100% | recognition of CLL cells from A*02-negative patients by peptide-specific T cells [7]: recognized in any case (0/2) and 0/4 A*02-negative target cells were recognized | recognition of CLL cells from A*02-positive patients by peptide-specific T cells [7]: recognized-in-all cases (3/3); also recorded: CLL cells from 4/4 A*02-positive patients were recognized | median numbers of positively stained CTL compared to responses to Influenza Matrix recall-antigen [8]: 76% | samples with significant (>20) CTL responses against peptide [8]: 60% | # of positively stained spots (IFN-γ ELISPOT) [8]: 4 per 105 PBMC and 56 per 105 PBMC (2×) and 77 per 105 PBMC and 88 per 105 PBMC and 122 per 105 PBMC and 45 per 105 PBMC and 35 per 105 PBMC and 0 per 105 PBMC (4×) and 1 per 105 PBMC and 2 per 105 PBMC and 3 per 105 PBMC and 68 per 105 PBMC and 100 per 105 PBMC and 83 per 105 PBMC and 121 per 105 PBMC and 93 per 105 PBMC | recognition of AML cells from A*02-negative patients by peptide-specific T cells [9]: not recognized (4/4) | recognition of AML cells from A*02-positive patients by peptide-specific T cells [9]: recognized in all cases | A*02-positive AML patients in whom the peptide is a tumor-associated antigen [9]: 100%
